In brackets after ≈: the same amount, converted by molar mass.
What was measured:
Candida tropicalis 8915 = test: Broth microdilution MIC (CLSI M27-A3/M60); format: cell-based; settings: MIC80 (≥80% growth inhibition), 30 °C, 24 h; for MIC: Candida tropicalis, 8915, read-out: MIC, C. tro 8915
Description: (§1) According to the Clinical Laboratory Standards Institute (CLSI, M27-A3 and M60) protocols[10]^,[11], the target compounds were evaluated for their in vitro antifungal activity by the broth microdilution method. The fungi strains used in this study were obtained from the American Type Culture Collection (ATCC) and Changhai Hospital (Shanghai, China). […] Fluconazole (FCZ) and ketoconazole (KCZ) were used as positive controls.
(§2) All fungal strains used in this study were obtained from the American Type Culture Collection (ATCC) and Changhai Hospital (Shanghai, China). All strains were cultivated by shaking (200 rpm) at 30 °C in YEPD medium (1% yeast extract, 2% peptone, and 2% dextrose) to an exponential growth stage.
(§3) Fungal cells at the exponential growth stage were collected and resuspended in RPMI 1640 medium, then diluted to 1 × 10^3 cells/mL. The suspension of fungal cells was inoculated into 96-well plates. Antifungal compounds were serially added and diluted in a 2-fold series to a final concentration range of 64.0–0.125 µg/mL. RPMI 1640 medium with no fungal cells served as a blank control. The fungal suspensions containing DMSO and FCZ served as the negative control and the positive control, respectively. C. albicans, C. glabrata, C. parapsilosis, C. tropicalis, and C. auris cells were incubated at 30 °C for 24 h, C. neoformans and A. fumigatus cells were incubated at 30 °C for 48 h. The optical density (OD630) at 630 nm was measured by a spectrophotometer, which was used to calculate the MIC80 values of each compound.

Candida glabrata 537 = test: Broth microdilution MIC (CLSI M27-A3/M60); format: cell-based; settings: MIC80 (≥80% growth inhibition), 30 °C, 24 h; for MIC: Nakaseomyces glabratus, 537, read-out: MIC, C. gla 537
Description: as §1, §2, §3

[1] = test system: Cryptococcus neoformans 22-21; test: Broth microdilution MIC (CLSI M27-A3/M60); format: cell-based; settings: 2221, MIC80 (≥80% growth inhibition), 30 °C, 48 h, read-out: MIC, C. neo 22-21
Description: as §1, §2, §3

Candida albicans SC5314 = test: Broth microdilution MIC (CLSI M27-A3/M60); format: cell-based; settings: MIC80 (≥80% growth inhibition), 30 °C, 24 h; for MIC: Candida albicans, SC5314, read-out: MIC, C. alb SC5314
Description: as §1, §2, §3

[2] = test system: Candida parapsilosis 22-20; test: Broth microdilution MIC (CLSI M27-A3/M60); format: cell-based; settings: Lodderomyces parapsilosis, 2220; MIC80 (≥80% growth inhibition), 30 °C, 24 h; read-out: MIC, C. par 22-20
Description: as §1, §2, §3

[3] = test system: Aspergillus fumigatus 7544; test: Broth microdilution MIC (CLSI M27-A3/M60); format: cell-based; settings: MIC80 (≥80% growth inhibition), 30 °C, 48 h; for MIC: Aspergillus fumigatus, 7544, read-out: MIC, A. fum 7544
Description: as §1, §2, §3

C. albicans SC5314 = test: GC-MS analysis of sterol composition; format: cell-based, Candida albicans; settings: 8 µg/mL, 8 h; for ergosterol content of the fungal cells (of total sterols): control 89.85%
Description: As the major fungal sterol, ergosterol accounted for 89.85% of the total sterols in the control group, zymosterol accounted for 8.80%, in addition to several other sterols. […] In contrast, the content of other sterols in the bypass pathway increased.
Overnight cultured C. albicans SC5314 fungal cells were collected and diluted to 5 × 10^6 cells/mL in YEPD medium. […] The fungal cells were cultured by shaking (200 rpm) at 30 °C. After incubation for 8 h, the fungal suspension was centrifuged (3000 rpm, 1 min), harvested and washed twice with distilled water carefully. The saponifying agent (6 ml of 15% NaOH resolved in 90% ethanol) was added to the precipitate. After 1 h of saponification at 80 °C, sterols were extracted with hexane (3 × 5 ml). The combined extracts were evaporated in a water bath and washed once with water. The residue was dried in a 60 °C water bath to obtain the total sterols. Finally, the total sterol was analysed by GC-MS and the structures of each sterol content were identified and compared with the National Institute of Standards and Technology (NIST) database.

C. auris 918 = test: MIC against FCZ-resistant strains, microdilution; format: cell-based, Candida auris; settings: Candidozyma auris, FCZ-resistant isolate, 30 °C, 24 h
Excerpt: (§4) The alarming impact of drug resistance amongst Candida spp. is an emerging problem globally. Rising rates of azole-resistant Candida spp. are associated with an increase in treatment failures. Candida auris is characterised by a high level of multi-drug resistance. It has been reported in more than 45 countries and has caused serious hospital outbreaks with crude mortality rates as high as 72%[13]^,[14].
as §2
as §3, with “The fungal suspensions containing DMSO and FCZ served as the negative control and the positive control, respectively.” left out

C. auris 919 = test: MIC against FCZ-resistant strains, microdilution; format: cell-based, Candida auris; settings: Candidozyma auris, FCZ-resistant isolate, 30 °C, 24 h
Excerpt: as §4, §2
as §3, with “The fungal suspensions containing DMSO and FCZ served as the negative control and the positive control, respectively.” left out

[4] = test system: FCZ-resistant C. albicans 901; test: MIC against FCZ-resistant strains, microdilution; format: cell-based, Candida albicans; settings: FCZ-resistant isolate, 30 °C, 24 h; for MIC: Candida albicans, read-out: MIC, C.alb 901
Excerpt: as §4, §2
as §3, with “The fungal suspensions containing DMSO and FCZ served as the negative control and the positive control, respectively.” left out

in vitro = settings: rabbit

Row | Structure (SMILES) | MIC (Candida tropicalis 8915) | MIC (Candida glabrata 537) | MIC [1] | MIC (Candida albicans SC5314) | MIC [2] | MIC [3] | MIC (C. auris 918) | MIC (C. auris 919) | MIC [4] | further results
1 | C[C@@H](NC(=O)CCc1ccc(C(C)(C)C)cc1)[C@](O)(Cn1cncn1)c1ccc(F)cc1F [A9] | > 64 µg/mL | ≤ 0.125 µg/mL | ≤ 0.125 µg/mL | ≤ 0.125 µg/mL | 0.25 µg/mL (≈ 0.548 µM) | 32 µg/mL (≈ 70.1 µM) | > 64 µg/mL | 32 µg/mL (≈ 70.1 µM) | 32 µg/mL (≈ 70.1 µM) | MIC, C. alb SC5314 (Candida albicans SC5314): ≤ 0.125 µg/mL; ergosterol content of the fungal cells (of total sterols) (C. albicans SC5314): 5.17%; hemolysis at 1 h, 16 µg/mL (in vitro): 0.78%
2 | CC(=O)c1ccc(CCC(=O)N[C@H](C)[C@](O)(Cn2cncn2)c2ccc(F)cc2F)cc1 [A11] | > 64 µg/mL | 1 µg/mL (≈ 2.26 µM) | 1 µg/mL (≈ 2.26 µM) | 2 µg/mL (≈ 4.52 µM) | 4 µg/mL (≈ 9.04 µM) | > 64 µg/mL | – | – | – | –
3 | C[C@@H](NC(=O)CCc1ccc(F)c(F)c1)[C@](O)(Cn1cncn1)c1ccc(F)cc1F [A14] | 64 µg/mL (≈ 147 µM) | ≤ 0.125 µg/mL | 1 µg/mL (≈ 2.29 µM) | ≤ 0.125 µg/mL | 1 µg/mL (≈ 2.29 µM) | 64 µg/mL (≈ 147 µM) | > 64 µg/mL | > 64 µg/mL | 4 µg/mL (≈ 9.17 µM) | –
4 | C[C@@H](NC(=O)CCc1cc(F)cc(F)c1)[C@](O)(Cn1cncn1)c1ccc(F)cc1F [A17] | 16 µg/mL (≈ 36.7 µM) | ≤ 0.125 µg/mL | 0.5 µg/mL (≈ 1.15 µM) | ≤ 0.125 µg/mL | 0.5 µg/mL (≈ 1.15 µM) | 32 µg/mL (≈ 73.3 µM) | > 64 µg/mL | > 64 µg/mL | 4 µg/mL (≈ 9.17 µM) | –
5 | C[C@@H]1[C@H](O)[C@@H](C)/C=C/C=C/C=C/C=C/C=C/C=C/C=C/[C@H](O[C@@H]2O[C@H](C)[C@@H](O)[C@H](N)[C@@H]2O)C[C@@H]2O[C@](O)(C[C@@H](O)C[C@@H](O)[C@H](O)CC[C@@H](O)C[C@@H](O)CC(=O)O[C@H]1C)C[C@H](O)[C@H]2C(=O)O [AmB, amphotericin B] | – | – | – | – | – | – | – | – | – | hemolysis at 1 h, 16 µg/mL (in vitro): 4.87%; hemolysis at 1 h, 32 µg/mL (in vitro): 57.7%; hemolysis at 1 h, 64 µg/mL (in vitro): 100%
6 | OC(Cn1cncn1)(Cn1cncn1)c1ccc(F)cc1F [FCZ, fluconazole, reference compound] | > 64 µg/mL | 1 µg/mL (≈ 3.27 µM) | 1 µg/mL (≈ 3.27 µM) | 0.5 µg/mL (≈ 1.63 µM) | 4 µg/mL (≈ 13.1 µM) | > 64 µg/mL | > 256 µg/mL | > 256 µg/mL | > 256 µg/mL | MIC, C. tro 8915 (Candida tropicalis 8915): > 64.0 µg/mL; MIC, A. fum 7544 [3]: > 64.0 µg/mL; ergosterol content of the fungal cells (of total sterols) (C. albicans SC5314): 6.08%; hemolysis at 1 h, 16 µg/mL (in vitro): 1.3%
7 | CC(=O)N1CCN(c2ccc(OCC3COC(Cn4ccnc4)(c4ccc(Cl)cc4Cl)O3)cc2)CC1 (stereo not shown) [KCZ, ketoconazole, reference compound] | 16 µg/mL (≈ 30.1 µM) | 1 µg/mL (≈ 1.88 µM) | 0.125 µg/mL (≈ 0.235 µM) | 4 µg/mL (≈ 7.53 µM) | 0.5 µg/mL (≈ 0.941 µM) | 4 µg/mL (≈ 7.53 µM) | – | – | – | –

Continued, in another order:

Row | MIC (Candida tropicalis 8915) | MIC (Candida glabrata 537) | MIC [1] | MIC (Candida albicans SC5314) | MIC [2] | MIC [3] | MIC (C. auris 918) | MIC (C. auris 919) | MIC [4] | Structure (SMILES) | further results
8 | > 64 µg/mL | ≤ 0.125 µg/mL | 0.25 µg/mL (≈ 0.624 µM) | ≤ 0.125 µg/mL | 0.5 µg/mL (≈ 1.25 µM) | 64 µg/mL (≈ 160 µM) | 64 µg/mL (≈ 160 µM) | 32 µg/mL (≈ 79.9 µM) | 1 µg/mL (≈ 2.5 µM) | C[C@@H](NC(=O)CCc1ccccc1)[C@](O)(Cn1cncn1)c1ccc(F)cc1F [A1] | MIC, C. gla 537 (Candida glabrata 537): ≤ 0.125 µg/mL; MIC, C. alb SC5314 (Candida albicans SC5314): ≤ 0.125 µg/mL; proportion of 14α-methylfecosterol (of total sterols) (C. albicans SC5314): 31.11%; proportion of eburicol (of total sterols) (C. albicans SC5314): 19.29%; proportion of lanosterol (of total sterols) (C. albicans SC5314): 23.42%; proportion of obtusifoliol (of total sterols) (C. albicans SC5314): 20.09%; ergosterol content of the fungal cells (of total sterols) (C. albicans SC5314): 5.44%; MIC, C.alb 901 [4]: 1.0 µg/mL (≈ 2.5 µM); hemolysis at 1 h, 16 µg/mL (in vitro): 0.95%
9 | 8 µg/mL (≈ 17.7 µM) | ≤ 0.125 µg/mL | 0.5 µg/mL (≈ 1.1 µM) | ≤ 0.125 µg/mL | 0.5 µg/mL (≈ 1.1 µM) | 32 µg/mL (≈ 70.7 µM) | 64 µg/mL (≈ 141 µM) | 64 µg/mL (≈ 141 µM) | 8 µg/mL (≈ 17.7 µM) | C[C@@H](NC(=O)CCc1ccc(Cl)c(F)c1)[C@](O)(Cn1cncn1)c1ccc(F)cc1F [A15] | –
10 | 8 µg/mL (≈ 17 µM) | ≤ 0.125 µg/mL | ≤ 0.125 µg/mL | ≤ 0.125 µg/mL | 0.5 µg/mL (≈ 1.07 µM) | 64 µg/mL (≈ 136 µM) | > 64 µg/mL | > 64 µg/mL | 2 µg/mL (≈ 4.26 µM) | C[C@@H](NC(=O)CCc1ccc(Cl)c(Cl)c1)[C@](O)(Cn1cncn1)c1ccc(F)cc1F [A16] | –
11 | > 64 µg/mL | 1 µg/mL (≈ 2.41 µM) | 2 µg/mL (≈ 4.81 µM) | 1 µg/mL (≈ 2.41 µM) | 2 µg/mL (≈ 4.81 µM) | > 64 µg/mL | – | – | – | Cc1cccnc1CCC(=O)N[C@H](C)[C@](O)(Cn1cncn1)c1ccc(F)cc1F [A19] | –
12 | > 64 µg/mL | 2 µg/mL (≈ 4.81 µM) | 4 µg/mL (≈ 9.63 µM) | 1 µg/mL (≈ 2.41 µM) | 4 µg/mL (≈ 9.63 µM) | > 64 µg/mL | – | – | – | Cc1ccnc(CCC(=O)N[C@H](C)[C@](O)(Cn2cncn2)c2ccc(F)cc2F)c1 [A20] | –
13 | > 64 µg/mL | 2 µg/mL (≈ 4.81 µM) | 4 µg/mL (≈ 9.63 µM) | 2 µg/mL (≈ 4.81 µM) | 4 µg/mL (≈ 9.63 µM) | > 64 µg/mL | – | – | – | Cc1ccc(CCC(=O)N[C@H](C)[C@](O)(Cn2cncn2)c2ccc(F)cc2F)nc1 [A21] | –
14 | > 64 µg/mL | 1 µg/mL (≈ 2.41 µM) | 8 µg/mL (≈ 19.3 µM) | 64 µg/mL (≈ 154 µM) | 16 µg/mL (≈ 38.5 µM) | > 64 µg/mL | – | – | – | Cc1ccncc1CCC(=O)N[C@H](C)[C@](O)(Cn1cncn1)c1ccc(F)cc1F [A23] | –
15 | > 64 µg/mL | 4 µg/mL (≈ 9.63 µM) | 32 µg/mL (≈ 77 µM) | 16 µg/mL (≈ 38.5 µM) | 32 µg/mL (≈ 77 µM) | > 64 µg/mL | – | – | – | Cc1cncc(CCC(=O)N[C@H](C)[C@](O)(Cn2cncn2)c2ccc(F)cc2F)c1 [A24] | –
16 | > 64 µg/mL | 2 µg/mL (≈ 4.81 µM) | 16 µg/mL (≈ 38.5 µM) | 16 µg/mL (≈ 38.5 µM) | 64 µg/mL (≈ 154 µM) | > 64 µg/mL | – | – | – | Cc1ccc(CCC(=O)N[C@H](C)[C@](O)(Cn2cncn2)c2ccc(F)cc2F)cn1 [A25] | –
